In brackets after ≈: the same amount, converted by molar mass. Bridge positions count the residues as written; N and C are the ends. Square brackets hold non-standard residues; d marks the D form. Peptide text beside a SMILES is read from it. ξ: configuration not given here. Thr(3ξ) = CC(O)[C@H](N)C(=O)O
Assays:
Type in all cases: functional
[1] = test system: Klebsiella pneumoniae; experiment: Antibacterial activity against rifampin and streptomycin resistant Klebsiella pneumoniae VK148 assessed as reduction in bacterial cell viability incubated for 4 hrs by resazurin assay; details: VK148, 4 h
[2] = test system: Escherichia coli; experiment: Antibacterial activity against Escherichia coli ATCC 25922 assessed as reduction in bacterial cell viability incubated for 4 hrs by resazurin assay; details: ATCC 25922, 4 h
[3] = test system: Escherichia coli; experiment: Antibacterial activity against Escherichia coli ATCC 25922 assessed as reduction in […] at 60 uM incubated for 4 hrs by resazurin assay relative to control; design: scale not given: the % may be the effect or the level left

Row | SMILES | MIC [1] [µM] | MIC [2] [µM] | Activity [3] [%]
1 | CC[C@H](C)[C@@H]1NC(=O)[C@H](C)NC(=O)[C@H](CO)NC(=O)[C@H](CO)NC(=O)[C@H]([C@@H](C)CC)NC(=O)[C@@H]2CSSC[C@@H]3NC(=O)[C@H](C(C)C)NC(=O)[C@H](CCCCN)NC(=O)[C@@H](CO)NC(=O)[C@H](CCCCN)NC(=O)[C@H]4CSSC[C@H](NC(=O)[C@H](CO)NC(=O)[C@H](CCC(=O)O)NC(=O)CNC(=O)[C@H](CSSC[C@H](NC(=O)CNC1=O)C(=O)N[C@@H](CO)C(=O)N4)NC(=O)[C@@H]1CCCN1C(=O)[C@H]([C@@H](C)CC)NC(=O)CNC(=O)[C@H](CC(N)=O)NC(=O)[C@@H](CCCNC(=N)N)NC(=O)[C@H](Cc1ccc(O)cc1)NC3=O)C(=O)N[C@@H](C(C)C)C(=O)N[C@@H](Cc1c[nH]c3ccccc13)C(=O)N[C@@H]([C@@H](C)CC)C(=O)N1CCC[C@H]1C(=O)N2 | < 12.5 | 5 (≈ 15.7 µg/mL) | 
2 | CC[C@H](C)[C@@H]1NC(=O)[C@H](CO)NC(=O)[C@H](C)NC(=O)[C@H](CO)NC(=O)[C@H](Cc2ccc(O)cc2)NC(=O)[C@@H]2CSSC[C@@H]3NC(=O)[C@H](C(C)C)NC(=O)[C@H](CCCCN)NC(=O)[C@H](Cc4ccc(O)cc4)NC(=O)[C@H](CCCCN)NC(=O)[C@H](CO)NC(=O)[C@@H]4CSSC[C@H](NC(=O)[C@H](C(C)O)NC(=O)[C@H](CCC(=O)O)NC(=O)CNC(=O)[C@H](CSSC[C@H](NC(=O)CNC1=O)C(=O)N[C@@H](CO)C(=O)N4)NC(=O)[C@H](C)NC(=O)CNC(=O)[C@@H]1CCCN1C(=O)[C@H](CC(N)=O)NC(=O)CNC(=O)[C@H](CC(N)=O)NC(=O)[C@H](CC(C)C)NC(=O)[C@H]([C@@H](C)O)NC3=O)C(=O)N[C@@H]([C@@H](C)CC)C(=O)N[C@@H](Cc1c[nH]c3ccccc13)C(=O)NCC(=O)N[C@@H](CCCCN)C(=O)N2 (stereo partly drawn) (cyclo(ACGE[Thr(3ξ)]CIWGKCYSASIGCSCSKYKVCTLNGNPG); disulfide 2-18, 6-20, 11-26) |  |  | 50

Reference: ChEMBL document CHEMBL4414564, “Viola "inconspicua" No More: An Analysis of Antibacterial Cyclotides” (2019)
